Tested on: Sprague-Dawley rats
Test: Citrate in rats with ischemia/reperfusion injury or sham operation on a high phosphate diet with intermittent dehydration
Assay type: in vivo, rat
Conditions: day 60
Description: A total of 48 male and female Sprague-Dawley rats (150-200 g body weight at start of experiment) were divided in eight groups (A to H) containing 6 animals each (Table 1). On day 1 of the experiment groups A, B, E and F got 30 minutes of bilateral renal ischemia reperfusion injury, while control groups C, D, G and H were sham operated (12) (Table 1). The rats were given 48 hours to recover and BUN and serum creatinine levels were then determined.
On day 3 all groups (A to H) were put on a high phosphorus diet (NIH-07 diet, see reference #6) for 60 days. All groups were dehydrated for 8 hours once a week. While groups B, D, F and H received citrate (2% wt) in their drinking water, the other groups had access to regular tap water, except during periods of dehydration. As rats typically consume a daily average of 10 ml of water per 100 g of body weight, each rat of groups B, D, F and H received an approximate daily dosage of 2 g of citrate per kg of body weight.
On day 30 arterial blood samples were collected for pH, BUN and serum creatinine measurements.
On day 60 all animals were sacrificed. Arterial blood samples were collected for serum pH, phosphorus, BUN and creatinine measurements. Bladder urine samples were collected for pH measurements. Kidneys were longitudinally dissected, formalin fixed and paraffin embedded for generation of light microscopic sections. Additional paraffin embedded tissue sections were stained with “von Kossa” stain for calcium crystal identification and LM tissue sections were scored for acute tubular injury as described elsewhere.
Statistically significant differences between experimental groups were determined using Bonferroni t-tests and analysis of variance.

## O=C(O)CC(O)(CC(=O)O)C(=O)O [citrate]
All groups (male/female, I/R or sham), high phosphate diet, citrate in drinking water
  Decrease of serum phosphorus levels: 30%
All study groups
  Effect on serum pH: did not have a significant effect
  Effect on urine pH: did not have a significant effect
Female I/R rats with citrate supplementation
  Histology: tubular injury, casts and calcium phosphate crystals: focal tubular dilation but no casts and no calcium phosphate crystals
Female sham operated rats, without vs with citrate
  Histology: tubular morphology: no significant difference in tubular morphology
Male I/R rats with citrate supplementation
  Histology: morphologic changes of ATN: markedly reversed
Male and female rats with I/R, high phosphate diet, citrate 2% wt in drinking water
  Serum BUN levels (renal function): returned BUN levels to near control values
Male sham operated rats with citrate supplementation
  Histology: tubular injury and cast formation: markedly decreased tubular injury and cast formation
